This is an account of results in ChEMBL document CHEMBL1132061, “Studies towards the identification of potent, selective and bioavailable thrombin inhibitors” (Bioorg Med Chem Lett, 1999).

One series addresses Prothrombin (Homo sapiens, UniProt P00734). The series is described as follows: In vitro inhibition of human thrombin.
The species named for a further series is Homo sapiens. The series is described as follows: Influence on the doubling of activated partial human thromboplastin time(APTT). The series is classed as functional.
A short description of series [1]: Bioavailability in rat after p.o. administration at a dose of 30 mg/kg. The note with it: in vivo, po. The series is classed as ADME, organism-based.

`CN(C)C[C@H](Cc1ccccc1)Nc1ccncc1S(=O)(=O)N[C@@H](Cc1ccccc1)C(=O)N1CCC(CCF)CC1` (stereo in doubt; 8): the Ki (as a rule, the equilibrium dissociation constant of an inhibitor or competing ligand from its target) at Prothrombin came to 130 nM.
Same read-out and setting: for `O=C([C@H](Cc1ccccc1)NS(=O)(=O)c1cnccc1N[C@H](COCCO)Cc1ccccc1)N1CCC(CCF)CC1` the value was 220 nM.
Still for that read-out and setting: as for `CN(C)C[C@H](Cc1ccccc1)Nc1ccncc1S(=O)(=O)N[C@@H](Cc1ccccc1)C(=O)N1CCC(CCF)CC1` (stereo in doubt; 64) [listing 1 of 2 here], the figure is 130 nM; as for `O=C([C@H](Cc1ccccc1)NS(=O)(=O)c1cnccc1N[C@@H](Cc1ccccc1)CN1CCC(O)CC1)N1CCC(CCF)CC1`, 61 nM.
`CCC1CCN(C(=O)[C@H](Cc2ccc(N)cc2)NS(=O)(=O)c2cnccc2N[C@@H](Cc2ccccc2)CN2CCOCC2)CC1` showed a Ki on Prothrombin of 62 nM.
On the same count and under the same terms, as for `CCC1CCN(C(=O)[C@H](Cc2ccc(N)cc2)NS(=O)(=O)c2cnccc2N[C@H](CO)Cc2ccc(OC)cc2)CC1`, the figure is 40 nM.
As to `Nc1ccc(C[C@H](NS(=O)(=O)c2cnccc2N[C@@H](Cc2ccccc2)CN2CCOCC2)C(=O)N2CCC(CCF)CC2)cc1`, the Activity in the series listed under Homo sapiens came out at 2.9 µM.
`COc1ccc(C[C@@H](CO)Nc2ccncc2S(=O)(=O)N[C@@H](Cc2ccccc2)C(=O)N2CCC(CCF)CC2)cc1`: the Ki at Prothrombin was 85 nM.
Regarding `O=C([C@H](Cc1ccc(O)cc1)NS(=O)(=O)c1cnccc1N[C@H](COCCO)Cc1ccccc1)N1CCC(CCCl)CC1`, the Activity in the series listed under Homo sapiens is 4.4 µM. Affinity at Prothrombin was put at a Ki of 28 nM.
In turn, `CN(C)C[C@H](Cc1ccccc1)Nc1ccncc1S(=O)(=O)N[C@@H](Cc1ccccc1)C(=O)N1CCC(CCF)CC1` (stereo in doubt; 64) [listing 2 of 2 here] showed an Activity in the series filed under Homo sapiens of 9.6 µM.
At Prothrombin, `CCC1CCN(C(=O)[C@H](Cc2ccc(N)cc2)NS(=O)(=O)c2cnccc2N[C@H](COCCO)Cc2ccccc2)CC1` (stereo in doubt; 62) [listing 1 of 2 here] returned a Ki of 147 nM. The bioavailability (usually dose-corrected exposure relative to a reference, in per cent) in series [1] was found to be 55%.
Regarding `CCC1CCN(C(=O)[C@H](Cc2ccc(N)cc2)NS(=O)(=O)c2cnccc2N[C@H](COCCO)Cc2ccccc2)CC1` (stereo in doubt; 16), the affinity on Prothrombin, expressed as Ki, was 147 nM.
As for `CCC1CCN(C(=O)[C@H](Cc2ccc(N)cc2)NS(=O)(=O)c2cnccc2N[C@H](COCCO)Cc2ccccc2)CC1` (stereo in doubt; 62) [listing 2 of 2 here], the Activity in the series listed under Homo sapiens was 5 µM.
